Data: patent US20250026719A1, “NOVEL COMPOUNDS AS INHIBITORS OF PCSK9” (SHENGKE PHARMACEUTICALS (JIANGSU) LTD., priority 2021, published 2025)

Assays:
PCSK9 = PCSK9 ELISA of HepG2 culture medium; assay type: cell-based; settings: 24 hr
Protocol: (§1) HepG2 cells (ATCC, Cat.:HB-8065) were maintained in Growth medium—Eagle's Minimum Essential Medium (Corning, 10-010-CVR), 10% FBS (Gibco, 10099-141), Penicillin (100 units/mL), Streptomycin (100 μg/mL). HepG2 cells were incubated at 37° C., 5% CO2. HepG2 cells were plated in flat bottom 96-well plates (Corning, 3599) at 40,000 cells/well in 100 μL of growth media. After an overnight incubation, the culture media were changed to serum-free OptiMEM media(Gibco, 31985-062), 90 μL/well. Vehicle, PF-06446846 hydrochloride, berberine, or test compound was added to the culture media, 10 μL/well. After 24 hr medium was harvested, and 10 μL of the medium were used for the PCSK9 ELISA(R&D Systems, SPC900).

[1] = Metabolic stability in human liver microsomes; assay type: in vitro ADME; settings: human liver microsomes 0.5 mg/mL, 37° C., read-out: Metabolic stability T1/2 (minute) Human
Protocol: (§2) Metabolic Stability of Test Compounds in Incubation with Human, and Rat Liver Microsomes Study Details: • Test concentration: 1 μM; • Reference compound: Ketanserin; • Test systems: human, and rat liver microsomes (from Corning or Xenotech) with final liver microsomal protein concentration of 0.5 mg/mL; • Incubation condition: 0, 5, 15, 30, and 45 min at 37° C.; • Sample size: Duplicates (n=2); • Bioanalytical method: LC-MS/MS;
(§3) [formula] [formula] [formula] • where QH is the hepatic blood flow (mL/min/kg), fub is the fraction of unbound drug in plasma which is assumed to be 1, Clint is the in vitro intrinsic clearance.

HepG2 cells = assay: HepG2 cell viability assay (CellTiter-Glo, cellular ATP); assay type: cell-based; settings: 24 hr, serum-free OptiMEM
Protocol: as §1, with “black clear” for “flat”, “3063)” for “3599)”, “media (Gibco,” for “media(Gibco,”, “cellular ATP levels” for “medium was harvested, and 10 μL of the medium”, “measured using CellTiter-Glo® 2.0 Assay (Promega, G9242).” for “used for the PCSK9 ELISA(R&D Systems, SPC900).”

PCSK9 mRNA = assay: RT-Q-PCR analysis of PCSK9 mRNA in HepG2 cells; assay type: cell-based; settings: Homo sapiens, 24 h, normalized to GAPDH, read-out: HepG2 Q-PCR PCSK9 mRNA level decrease (10 μM)
Protocol: HepG2 cells (ATCC, Cat.:HB-8065) were maintained in Growth medium—Eagle's Minimum Essential Medium (Corning, 10-010-CVR), 10% FBS (Gibco, 10099-141), Penicillin (100 units/mL), Streptomycin (100 μg/mL). HepG2 cells were incubated at 37° C., 5% CO2.
Cells were cultured in growth medium as described above and treated with the vehicle, Berberine or test compound for 24 h. The RNA was extracted using the Total RNA mini Kit (Tiangen, Beijing, China) according to the manufacturer's instructions. Reverse transcription was carried out using the High-Capacity cDNA reverse transcription kit (Thermo Fisher Scientific). Quantitative real-time PCR was performed using a reaction mixture containing cDNA, specific primers [PCSK9, 5′-[…]-3′ (forward) and 5′-[…]-3′ (reverse); GAPDH, 5′-[…]-3′ (forward) and 5′-[…]-3′ (reverse)] and Maxima SYBR Green/ROX qPCR Master Mix(Thermo Fisher Scientific). PCR amplification was carried out in a Real-Time PCR System. The real-time PCR conditions were 37° C. 10 min; 95° C. 10 min; 95° C. 15 s, 60° C. 30 s, 72° C. 30 s, 40 cycle. The amount of mRNA was normalized to the GAPDH level in the same samples.

[2] = Metabolic stability in rat liver microsomes; assay type: in vitro ADME; settings: rat liver microsomes 0.5 mg/mL, 37° C., read-out: Metabolic stability T1/2 (minute) Rat
Protocol: as §2, §3

Row | SMILES | HepG2 PCSK9 ELISA (10 μM) % inhibition (PCSK9) [%] | half-life at 1 μM [1] [min] | HepG2 Survival assay (10 μM) (HepG2 cells) [%] | inhibition at 10 µM (PCSK9 mRNA) [%] | half-life at 1 μM [2] [min]
1 | O=C(CN(CC(=O)NC1CC1)C(=O)c1ccc(C(F)(F)F)[nH]1)Nc1ccc(Oc2ccc(C(F)(F)F)cc2)cc1 [Compound 201-293] | 100 | 98.7 | 99 | 50 | 417
2 | CC(C)NC(=O)CN(CC(=O)Nc1ccc(Oc2ccc(C(C)C)cc2)cc1)C(=O)c1ccc(C(F)(F)F)[nH]1 [Compound 201-319] | 96 | – | 76.1 | 60 | –
3 | COc1ccc(Oc2ccc(NC(=O)CN(CC(=O)NC3CC3)C(=O)c3ccc(C(F)(F)F)o3)cc2)cc1 [Compound 201-318] | – | – | 101.6 | – | –
4 | CC(C)NC(=O)CN(CC(=O)Nc1ccc(Oc2ccc(C(F)F)cc2)cc1)C(=O)c1cc2cccc(F)c2[nH]1 [Compound 201-327] | 90 | 14.4 | 98 | 88 | 35.4
5 | CC(C)NC(=O)CN(CC(=O)Nc1ccc(Oc2ccc(C(C)C)cc2)cc1)C(=O)c1cc2cccc(C#N)c2[nH]1 [Compound 201-323] | 79 | – | 105.6 | – | –
6 | COc1ccc(Oc2ccc(NC(=O)CN(CC(=O)NC3CC3)C(=O)c3cc4cccc(F)c4[nH]3)cc2)cc1 [Compound 201-314] | 97 | – | 103.7 | – | –
7 | CC(C)NC(=O)CN(CC(=O)Nc1ccc(Oc2ccc(C(F)(F)F)cc2)cc1)C(=O)c1ccc(C(F)(F)F)[nH]1 [Compound 201-281] | 100 | 159 | 98 | 70 | 428
8 | COc1ccc(Oc2ccc(NC(=O)CN(CC(=O)NC3CC3)C(=O)c3cc4cccc(C#N)c4[nH]3)cc2)cc1 [Compound 201-326] | 83 | – | 112.5 | – | –
9 | COc1ccc(Oc2ccc(NC(=O)CN(CC(=O)NC3CC3)C(=O)c3ccc(C(F)(F)F)[nH]3)cc2)cc1 [Compound 201-322] | – | – | 89.6 | – | –
10 | COc1ccc2cc3[n+](cc2c1OC)CCc1cc2c(cc1-3)OCO2 [Berberine, reference compound] | 52 | – | – | 35 | –
11 | CC(C)NC(=O)CN(CC(=O)Nc1ccc(Oc2ccc(C(C)C)cc2)cc1)C(=O)c1ccc(C(F)(F)F)o1 [Compound 201-315] | 89 | – | 102 | – | –
12 | CC(C)c1ccc(Oc2ccc(NC(=O)CN(CC(=O)NC3CC3)C(=O)c3ccc(C(F)(F)F)o3)cc2)cc1 [Compound 201-316] | 89 | – | 108.4 | – | –
13 | CC(C)c1ccc(Oc2ccc(NC(=O)CN(CC(=O)NC3CC3)C(=O)c3cc4cccc(C#N)c4[nH]3)cc2)cc1 [Compound 201-324] | 72 | – | 101.5 | – | –
14 | COc1ccc(Oc2ccc(NC(=O)CN(CC(=O)NC(C)C)C(=O)c3cc4cccc(F)c4[nH]3)cc2)cc1 [Compound 201-313] | 98 | – | 89.4 | – | –
15 | CC(C)NC(=O)CN(CC(=O)Nc1ccc(Oc2ccc(C(C)C)cc2)cc1)C(=O)c1cc2cccc(F)c2[nH]1 [Compound 201-311] | 85 | – | 105.9 | – | –
16 | COc1ccc(Oc2ccc(NC(=O)CN(CC(=O)NC(C)C)C(=O)c3ccc(C(F)(F)F)o3)cc2)cc1 [Compound 201-317] | – | – | 100.8 | – | –
